Measured values reported in the supplement of paper PMC8960247.
Structures can show the parent of a compound that is named as a salt. ± gives the standard error.

What was measured:
621-102 (TSC2-deficient) = assay: relative viability vs DMSO; higher = less cytotoxic; settings: serum: 10% FBS, 72 h
621-103 (TSC2-rescued) = assay: as above; settings: serum: 10% FBS, 72 h
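Also: immortalized renal angiomyolipoma cells stably carrying empty vector or TSC2, dosed in 384-well plates in DMEM, viability normalized to vehicle-treated wells within each plate.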

SMILES | relative viability (621-102 (TSC2-deficient); 0.0001 µM) [%] | relative viability (621-102 (TSC2-deficient); 0.001 µM) [%] | relative viability (621-102 (TSC2-deficient); 0.01 µM) [%] | relative viability (621-102 (TSC2-deficient); 0.1 µM) [%] | relative viability (621-102 (TSC2-deficient); 1 µM) [%] | relative viability (621-102 (TSC2-deficient); 10 µM) [%] | relative viability (621-103 (TSC2-rescued); 0.0001 µM) [%] | relative viability (621-103 (TSC2-rescued); 0.001 µM) [%] | relative viability (621-103 (TSC2-rescued); 0.01 µM) [%] | relative viability (621-103 (TSC2-rescued); 0.1 µM) [%] | relative viability (621-103 (TSC2-rescued); 1 µM) [%] | relative viability (621-103 (TSC2-rescued); 10 µM) [%]
C=CC(=O)Nc1cccc(Oc2nc(Nc3ccc(N4CCN(C)CC4)cc3)ncc2Cl)c1 [WZ3146] | 112 ± 3.9 | 110 ± 3.5 | 106 ± 2.6 | 107 ± 3.3 | 97 ± 2.9 | 23.8 ± 5.1 | 103 ± 2 | 100.6 ± 0.42 | 100 ± 1.1 | 101 ± 1.8 | 79.4 ± 1.4 | 12.9 ± 0.067
C=CC(=O)Nc1cccc(Oc2nc(Nc3ccc(N4CCN(C)CC4)cc3OC)ncc2Cl)c1 [WZ4002] | 110 ± 1.7 | 100 ± 6.1 | 104 ± 4.2 | 101 ± 3.6 | 99 ± 2 | 51.6 ± 2 | 100.2 ± 0.22 | 101 ± 1.6 | 100.1 ± 0.83 | 101.6 ± 0.99 | 101 ± 2.2 | 32.5 ± 1.5
C=CC(=O)Nc1cccc(Sc2nc(Nc3ccc(N4CCN(C)CC4)cc3)ncc2Cl)c1 [WZ8040] | 98.7 ± 3.8 | 97.6 ± 2.1 | 99.3 ± 3.3 | 95.9 ± 1.6 | 98 ± 3.3 | 17.7 ± 4.6 | 100 ± 1.2 | 100 ± 1.6 | 99.8 ± 1.3 | 100 ± 1.5 | 100.6 ± 0.89 | 14.9 ± 0.36
Oc1nc(-c2ccc(C(F)(F)F)cc2)nc2c1CSCC2 [XAV-939] | 116 ± 0.67 | 112 ± 2.7 | 116 ± 5.5 | 120 ± 1.9 | 119.9 ± 0.91 | 102.42 ± 0.045 | 99.56 ± 0.24 | 104 ± 2.7 | 102 ± 2.3 | 102 ± 2 | 102 ± 1.7 | 102 ± 1.7
COc1cc2nccc(Oc3ccc(NC(=O)C4(C(=O)Nc5ccc(F)cc5)CC4)cc3)c2cc1OC [XL184] | 110.1 ± 0.14 | 97.1 ± 3.1 | 98.8 ± 3.1 | 107 ± 1.7 | 107 ± 2 | 99.4 ± 0.21 | 97.27 ± 0.56 | 98.1 ± 1.1 | 96.6 ± 1.1 | 98.8 ± 2.2 | 98.7 ± 1.5 | 81.9 ± 4.7
COC(=O)[C@@H]1[C@H]2C[C@H]3c4[nH]c5ccccc5c4CCN3C[C@@H]2CC[C@@H]1O [Yohimbine HCl] | 106 ± 2.6 | 104 ± 1.2 | 104 ± 2.2 | 100.9 ± 0.15 | 100 ± 5.2 | 100 ± 2.6 | 104 ± 3.8 | 105 ± 3.1 | 105 ± 3.5 | 97 ± 3 | 99.4 ± 4.7 | 96.5 ± 3.8
FC(F)c1nc2ccccc2n1-c1nc(N2CCOCC2)nc(N2CCOCC2)n1 [ZSTK474] | 88.8 ± 4.7 | 94.9 ± 1.6 | 89.77 ± 0.68 | 95.7 ± 2 | 91.2 ± 3.4 | 52.1 ± 1.8 | 101 ± 2.4 | 97 ± 3.6 | 103.8 ± 0.79 | 105.3 ± 0.49 | 96.3 ± 2.2 | 49.6 ± 1.3
Nc1ccn([C@H]2CC[C@@H](CO)O2)c(=O)n1 [Zalcitabine] | 92.2 ± 0.98 | 99.9 ± 1.3 | 94.1 ± 2.3 | 103.3 ± 0.81 | 102 ± 3.1 | 93.26 ± 0.69 | 90.4 ± 5.7 | 95.48 ± 0.79 | 105 ± 1.1 | 105 ± 4.4 | 100.4 ± 0.83 | 102 ± 1.8
COc1nc(C)cnc1NS(=O)(=O)c1cccnc1-c1ccc(-c2nnco2)cc1 [Zibotentan (ZD4054)] | 118 ± 2.6 | 100 ± 3.1 | 109.9 ± 0.58 | 114 ± 2.4 | 105 ± 3.6 | 120 ± 1.6 | 103.31 ± 0.00057 | 99.8 ± 1.5 | 100.2 ± 0.14 | 100.5 ± 0.75 | 101 ± 1 | 102.5 ± 0.2
